Source: ChEMBL document CHEMBL1201862, “PubChem BioAssay data set” (2004)
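Five concentrations, 48 hours, 96-well plates. Abbreviation: GI50, concentration required for 50% inhibition of growth.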 Active and inactive are the calls of the source. Rule as the data show it: active = GI50 up to about 1.1 µM and inactive = higher.

Experiments:
Assay in all cases: NCI tumour cell line growth inhibition, 48 h
SK-MEL-28 = tested on: SK-MEL-28
KM-20L2 = tested on: KM-20L2
HOP-92 = tested on: HOP-92
HT-29 = tested on: HT-29
DLD-1 = tested on: DLD-1
Malme-3M = tested on: Malme-3M
RXF 393 = tested on: RXF 393
EKVX = tested on: EKVX
ACHN = tested on: ACHN
XF498 = tested on: XF498
SNB-78 = tested on: SNB-78
SF-268 = tested on: SF-268
SK-MEL-2 = tested on: SK-MEL-2
M19-MEL = tested on: M19-MEL
NCI-H522 = tested on: NCI-H522
UACC-62 = tested on: UACC-62
MOLT-4 = tested on: MOLT-4
CAKI-1 = tested on: CAKI-1
K562 = tested on: K562
CCRF-CEM = tested on: CCRF-CEM
COLO 205 = tested on: COLO 205
SR = tested on: SR
M14 = tested on: M14
UO-31 = tested on: UO-31
DMS-114 = tested on: DMS-114
LOX IMVI = tested on: LOX IMVI
HOP-62 = tested on: HOP-62
SF-539 = tested on: SF-539
OVCAR-4 = tested on: OVCAR-4
U-251 = tested on: U-251
SN12C = tested on: SN12C
TK-10 = tested on: TK-10
HCT-116 = tested on: HCT-116
SK-MEL-5 = tested on: SK-MEL-5
NCI-H226 = tested on: NCI-H226
NCI-H23 = tested on: NCI-H23
LXFL 529 = tested on: LXFL 529
A498 = tested on: A498
UACC-257 = tested on: UACC-257
DMS-273 = tested on: DMS-273
SF-295 = tested on: SF-295
IGROV-1 = tested on: IGROV-1
OVCAR-3 = tested on: OVCAR-3
A549 = tested on: A549
NCI-H460 = tested on: NCI-H460
OVCAR-8 = tested on: OVCAR-8
SNB-75 = tested on: SNB-75
SNB-19 = tested on: SNB-19
SK-OV-3 = tested on: SK-OV-3
OVCAR-5 = tested on: OVCAR-5
RPMI-8226 = tested on: RPMI-8226
HCT-15 = tested on: HCT-15
HOP-18 = tested on: HOP-18
KM12 = tested on: KM12
HL-60 = tested on: HL-60
786-0 = tested on: 786-0
SW-620 = tested on: SW-620

Measured: GI50

CC(C)(C)/N=N/C(C)(C)N=C=O
> 100 µM: HCT-15
inactive: SK-MEL-28 > 100 µM | KM-20L2 > 100 µM | HOP-92 > 100 µM | HT-29 > 100 µM | DLD-1 > 100 µM | Malme-3M > 100 µM | RXF 393 > 100 µM | EKVX 99.8 µM | ACHN > 100 µM | XF498 > 100 µM | SNB-78 > 100 µM | SF-268 > 100 µM | SK-MEL-2 > 100 µM | M19-MEL > 100 µM | NCI-H522 > 100 µM | UACC-62 > 100 µM | MOLT-4 > 100 µM | CAKI-1 > 100 µM | K562 > 100 µM | CCRF-CEM > 100 µM | COLO 205 > 100 µM | SR > 100 µM | M14 > 100 µM | UO-31 > 100 µM | DMS-114 > 100 µM | LOX IMVI > 100 µM | HOP-62 > 100 µM | SF-539 > 100 µM | OVCAR-4 > 100 µM | U-251 > 100 µM | SN12C > 100 µM | TK-10 > 100 µM | HCT-116 > 100 µM | SK-MEL-5 > 100 µM | NCI-H226 > 100 µM | NCI-H23 > 100 µM | LXFL 529 > 100 µM | A498 > 100 µM | UACC-257 > 100 µM | DMS-273 > 100 µM | SF-295 60.1 µM | IGROV-1 > 100 µM | OVCAR-3 > 100 µM | A549 > 100 µM | NCI-H460 > 100 µM | OVCAR-8 > 100 µM | SNB-75 > 100 µM | SNB-19 > 100 µM | SK-OV-3 > 100 µM | OVCAR-5 > 100 µM | RPMI-8226 > 100 µM | HOP-18 > 100 µM | KM12 > 100 µM | HL-60 > 100 µM | 786-0 > 100 µM | SW-620 > 100 µM
